Measurements as given in patent publication US20260165323A1, “USE OF STROBILURIN TYPE COMPOUNDS FOR COMBATING PHYTOPATHOGENIC FUNGI CONTAINING AN AMINO ACID SUBSTITUTION F129L IN THE MITOCHONDRIAL CYTOCHROME B PROTEIN CONFERRING RESISTANCE TO QO […]” (priority 2022, published 2026).

How the values were obtained:
Assay type in all cases: in vivo
[1] = tested on: Phakopsora pachyrhizi containing the amino acid substitution F129L in the mitochondrial cytochrome b protein; experiment: Use Example 1: protective control of soybean rust on soybeans (PHAKPA P2); conditions: inoculated 2 days after spraying, % diseased leaf area
Method: (§1) The compound was dissolved in a mixture of acetone and/or dimethylsulfoxide and the wetting agent/emulsifier Wettol, which is based on ethoxylated alkylphenoles, in a ratio (volume) solvent-emulsifier of 99 to 1 to give a total volume of 5 ml. Subsequently, water was added to total volume of 100 ml. This stock solution was then diluted with the described solvent-emulsifier-water mixture to the final concentration given in the tables below.
Use Example 1. Protective Control of Soybean Rust on Soybeans Caused by Phakopsora pachyrhizi (PHAKPA P2)
(§2) Leaves of potted soybean seedlings were sprayed to run-off with the previously described spray solution, containing the concentration of active ingredient or their mixture as described below. The plants were allowed to air-dry. The trial plants were cultivated for 2 days in a greenhouse chamber at 23-27° C. and a relative humidity between 60 and 80%. Then the plants were inoculated with spores of Phakopsora pachyrhizi. The strain used contains the amino acid substitution F129L in the mitochondrial cytochrome b protein conferring resistance to Qo inhibitors. To ensure the success the artificial inoculation, the plants were transferred to a humid chamber with a relative humidity of about 95% and 20 to 24° C. for 24 hr. The trial plants were cultivated for up to 14 days in a greenhouse chamber at 23 to 27° C. and a relative humidity between 60 and 80%. The extent of fungal attack on the leaves was visually assessed as % diseased leaf area, the disease level of untreated controls was usually higher than 85%.

[2] = tested on: Puccinia recondita; experiment: Use Example 3: curative control of brown rust on wheat (PUCCRT K4); conditions: % diseased leaf area
Method: as §1
Use Example 3. Curative Control of Brown Rust on Wheat Caused by Puccinia recondita (PUCCRT K4)
The first two developed leaves of potted wheat seedling were dusted with spores of Puccinia recondita. To ensure the success the artificial inoculation, the plants were transferred to a humid chamber without light and a relative humidity of 95 to 99% and 20 to 24° C. for 24 h. The next 3 days the plants were cultivated in a greenhouse chamber at 20 to 24° C. and a relative humidity between 65 and 70%. Then the plants were sprayed to run-off with previously described spray solution, containing the concentration of active ingredient or their mixture as described below. The plants were allowed to air-dry. Then the trial plants were cultivated for 5 to 7 days in a greenhouse chamber at 20 to 24° C. and a relative humidity between 65 and 70%. The extent of fungal attack on the leaves was visually assessed as % diseased leaf area, the disease level of untreated controls was usually between 80 and 100%.

[3] = tested on: Phakopsora pachyrhizi containing the amino acid substitution F129L in the mitochondrial cytochrome b protein; experiment: Use Example 2: protective control of soybean rust on soybeans (PHAKPA P6); conditions: inoculated six days after spraying, % diseased leaf area
Method: as §1
Use Example 2. Protective Control of Soybean Rust on Soybeans Caused by Phakopsora Pachyrhizi (PHAKPA P6)
as §2, with “active ingredient as described” for “active ingredient or their mixture as described”, “cultivated for six days in” for “cultivated for 2 days in”, “95% and 23 to 27°” for “95% and 20 to 24°”, “23 to 27° C. for” for “20 to 24° C. for”

[4] = tested on: Puccinia recondita; experiment: Use Example 4: preventative control of brown rust on wheat (PUCCRT P7); conditions: inoculated seven days after spraying, % diseased leaf area
Method: as §1
Use Example 4. Preventative Control of Brown Rust on Wheat Caused by Puccinia recondita (PUCCRT P7)
The first two developed leaves of potted wheat seedling were sprayed to run-off with previously described spray solution, containing the concentration of active ingredient or their mixture as described below. Seven days later the plants were dusted with spores of Puccinia recondita. To ensure the success of the artificial inoculation, the plants were transferred to a humid chamber without light and a relative humidity of 95 to 99% and 20 to 24° C. for 24 h. Then the trial plants were cultivated for 9 to 11 days in a greenhouse chamber at 20 to 24° C. and a relative humidity between 65 and 70%. The extent of fungal attack on the leaves was visually assessed as % diseased leaf area, the disease level of untreated controls was usually between 80 and 100%.

CO/C=C(/C(=O)OC)c1cccc(Cl)c1CO/N=C(\COC)c1ccccc1F [compound 13, Methyl-(E)-2-[3-chloro-2-[[(Z)-[1-(2-fluorophenyl)-2-methoxy-ethylidene]amino]oxymethyl]phenyl]-3-methoxy-prop-2-enoate]
% PHAKPA (F129L) Disease level P2 at 4 ppm [1]: 5% | % PHAKPA (F129L) Disease level P2 at 16 ppm [1]: 0% | % PUCCRT Disease level K4 at 4 ppm [2]: 67% | % PUCCRT Disease level K4 at 16 ppm [2]: 4% | % PHAKPA (F129L) Disease level P6 at 4 ppm [3]: 4% | % PHAKPA (F129L) Disease level P6 at 16 ppm [3]: 0% | % PUCCRT Disease level P7 at 4 ppm [4]: 67% | % PUCCRT Disease level P7 at 16 ppm [4]: 18%

CCOC/C(=N\OCc1c(F)cccc1/C(=C\OC)C(=O)OC)c1ccc(F)cc1 [compound 16]
% PHAKPA (F129L) Disease level P2 at 4 ppm [1]: 20% | % PHAKPA (F129L) Disease level P2 at 16 ppm [1]: 4% | % PUCCRT Disease level K4 at 4 ppm [2]: 83% | % PUCCRT Disease level K4 at 16 ppm [2]: 57% | % PHAKPA (F129L) Disease level P6 at 4 ppm [3]: 70% | % PHAKPA (F129L) Disease level P6 at 16 ppm [3]: 17% | % PUCCRT Disease level P7 at 4 ppm [4]: 80% | % PUCCRT Disease level P7 at 16 ppm [4]: 43%

CCOCC(=NOCc1c(Cl)cccc1C(=COC)C(=O)OC)c1ccccc1F [compound 18]
% PHAKPA (F129L) Disease level P2 at 4 ppm [1]: 6% | % PHAKPA (F129L) Disease level P2 at 16 ppm [1]: 0% | % PUCCRT Disease level K4 at 4 ppm [2]: 77% | % PUCCRT Disease level K4 at 16 ppm [2]: 32% | % PHAKPA (F129L) Disease level P6 at 4 ppm [3]: 22% | % PHAKPA (F129L) Disease level P6 at 16 ppm [3]: 2% | % PUCCRT Disease level P7 at 4 ppm [4]: 80% | % PUCCRT Disease level P7 at 16 ppm [4]: 30%

COC/C(=N\OCc1c(Cl)cccc1/C(=N\OC)C(=O)OC)c1ccccc1F [compound 19]
% PHAKPA (F129L) Disease level P2 at 4 ppm [1]: 33% | % PHAKPA (F129L) Disease level P2 at 16 ppm [1]: 6% | % PUCCRT Disease level K4 at 4 ppm [2]: 87% | % PUCCRT Disease level K4 at 16 ppm [2]: 80% | % PHAKPA (F129L) Disease level P6 at 4 ppm [3]: 77% | % PHAKPA (F129L) Disease level P6 at 16 ppm [3]: 31% | % PUCCRT Disease level P7 at 4 ppm [4]: 53% | % PUCCRT Disease level P7 at 16 ppm [4]: 15%

CCOC/C(=N\OCc1c(Cl)cccc1/C(=N\OC)C(=O)OC)c1ccccc1F [compound 20]
% PHAKPA (F129L) Disease level P2 at 4 ppm [1]: 60% | % PHAKPA (F129L) Disease level P2 at 16 ppm [1]: 43% | % PUCCRT Disease level K4 at 4 ppm [2]: 80% | % PUCCRT Disease level K4 at 16 ppm [2]: 77% | % PHAKPA (F129L) Disease level P6 at 4 ppm [3]: 63% | % PHAKPA (F129L) Disease level P6 at 16 ppm [3]: 63% | % PUCCRT Disease level P7 at 4 ppm [4]: 70% | % PUCCRT Disease level P7 at 16 ppm [4]: 57%

CNC(=O)/C(=N/OC)c1cccc(Cl)c1CO/N=C(\COC)c1ccccc1F [compound 21]
% PHAKPA (F129L) Disease level P2 at 4 ppm [1]: 7% | % PHAKPA (F129L) Disease level P2 at 16 ppm [1]: 0% | % PUCCRT Disease level K4 at 4 ppm [2]: 63% | % PUCCRT Disease level K4 at 16 ppm [2]: 28% | % PHAKPA (F129L) Disease level P6 at 4 ppm [3]: 16% | % PHAKPA (F129L) Disease level P6 at 16 ppm [3]: 1% | % PUCCRT Disease level P7 at 4 ppm [4]: 33% | % PUCCRT Disease level P7 at 16 ppm [4]: 6%

CCOC/C(=N\OCc1c(Cl)cccc1/C(=N\OC)C(=O)NC)c1ccccc1F [compound 22]
% PHAKPA (F129L) Disease level P2 at 4 ppm [1]: 15% | % PHAKPA (F129L) Disease level P2 at 16 ppm [1]: 4% | % PUCCRT Disease level K4 at 4 ppm [2]: 80% | % PUCCRT Disease level K4 at 16 ppm [2]: 63% | % PHAKPA (F129L) Disease level P6 at 4 ppm [3]: 40% | % PHAKPA (F129L) Disease level P6 at 16 ppm [3]: 4% | % PUCCRT Disease level P7 at 4 ppm [4]: 53% | % PUCCRT Disease level P7 at 16 ppm [4]: 28%

CCOCC(=NOCc1c(Cl)cccc1C(=COC)C(=O)OC)c1ccc(F)cc1 [compound 23]
% PHAKPA (F129L) Disease level P2 at 4 ppm [1]: 9% | % PHAKPA (F129L) Disease level P2 at 16 ppm [1]: 0% | % PUCCRT Disease level K4 at 4 ppm [2]: 67% | % PUCCRT Disease level K4 at 16 ppm [2]: 23% | % PHAKPA (F129L) Disease level P6 at 4 ppm [3]: 25% | % PHAKPA (F129L) Disease level P6 at 16 ppm [3]: 6% | % PUCCRT Disease level P7 at 4 ppm [4]: 37% | % PUCCRT Disease level P7 at 16 ppm [4]: 6%

COC/C(=N\OCc1c(Cl)cccc1/C(=N\OC)C(=O)OC)c1cccc(F)c1 [compound 25]
% PHAKPA (F129L) Disease level P2 at 4 ppm [1]: 82% | % PHAKPA (F129L) Disease level P2 at 16 ppm [1]: 23% | % PUCCRT Disease level K4 at 4 ppm [2]: 83% | % PUCCRT Disease level K4 at 16 ppm [2]: 78% | % PHAKPA (F129L) Disease level P6 at 4 ppm [3]: 90% | % PHAKPA (F129L) Disease level P6 at 16 ppm [3]: 58% | % PUCCRT Disease level P7 at 4 ppm [4]: 35% | % PUCCRT Disease level P7 at 16 ppm [4]: 5%
